Data on 1 compound can be found in patent publication EP2815749A1, “Solid form of 4-amino-2-(2,6-dioxopiperidine-3-yl)isoindoline-1,3-dione having specified X-ray diffraction pattern” (IP Gesellschaft für Management mbH, priority 2013, dated 2014).

SMILES strings stand for the structures.

A short description of series [1]: Polymorph screening: solvent evaporation. It counts as physicochemical. Particulars: form obtained. Here is the method:
(§1) Polymorph screening: A polymorph screen was conducted in the methylethyl ketone (MEK)/ water solvent systems, as well as in the acetonitrile (ACN), ACN/water and isopropyl acetate solvent systems. Polymorph screening techniques included crash cooling, solvent evaporation, antisolvent addition, and slurry experiments. Slurry experiments were performed on an IKA RCT hot plate with magnetic stirring set to 710 rpm. The temperature was controlled with an IKA ETS-D5 thermocouple. Solvent volumes were measured and transferred with Gibson Pipetteman volumetric pipettes. New forms that were identified as solvates were subjected to desolvation under two potential conditions: (1) drying in a vacuum oven at 40°C and (2) sitting undisturbed under ambient conditions in a fume hood. Physical characterization of all forms proceeded by X-ray powder diffraction (XRPD) and thermogravimetric analysis (TGA).
A saturated solution was made by slurrying Compound (VII), Form XX in 5 mL of solvent (ACN, isopropyl acetate (IP Ac), or MEK) or 1 mL of solvent for the MEK/Water solvent system. After 24 hours, the residual solids were removed by filtration. The saturated solutions were then subjected to rapid solvent evaporation by blowing nitrogen (N2) gas over the samples with a Pierce Model 18780 Reacti-Vap evaporating unit for four hours. The product precipitated as a white powder and the form was analyzed by XRPD and TGA.

Series [2] in a line: Polymorph screening: antisolvent addition. It counts as physicochemical. The following applies: form obtained. Here is the method:
as §1
Experiment 3: Antisolvent Addition: A saturated solution of Compound (VII), Form XX was made by slurrying either in 5 mL of solvent in the ACN, IP Ac, and MEK solvent systems, 2 mL total solvent for IP Ac/water, or 1 mL total solvent for the MEK/water solvent systems. After 24 hours, the residual solids were removed by filtration 20 mL of antisolvent was then quickly added to the saturated solutions to induce precipitation. Hexane was used as the antisolvent in the MEK and IP Ac solvent systems, and MTBE was used as the antisolvent in the ACN solvent systems, as a consequence of the immiscibility between ACN and hexane. The product precipitated as a white powder and the form was analyzed by XRPD and TGA. Table 9.

Series [3] can be described thus: Polymorph screening: crash cooling. It counts as physicochemical. The procedure: as §1
Experiment 1: Crash Cooling: A saturated solution of Compound (VII), Form XX was made by preparing 1 mL slurries using acetonitrile (ACN), ACN- water (75:25), methylethyl ketone (MEK), or MEK-water (99:1, 90:10, or 80:20) in vials. After 24 hours in capped HPLC vials, the slurries were then filtered to remove residual solids. Approximately 2 additional milligrams of Compound (VII) was added to each vial containing a saturated solution. Next, the vials were heated to 70°C with stirring until all of the material was completely dissolved. Immediately after, the samples were submerged into an ice bath. The product, which precipitated as a white powder within 1 minute, was isolated by filtration and analyzed by XRPD and TGA.

In the next series the target is T1, AF508-CFTR (Homo sapiens, UniProt P13569, DEL508-508).
T1 construct: expressed in transfected cells
The series can be described thus: Membrane potential optical assay for potentiation (FLIPR III). It counts as cell-based. The following applies: relative efficacy. The text has this:
SINGLE CRYSTAL […] OF FORM T: Single crystal analysis was done on a crystal of Form T ({drug7r}) as described above. […] The driving force for the response is the creation of a chloride ion gradient in conjunction with channel activation by a single liquid addition step after the cells have previously been treated with compounds and subsequently loaded with a voltage sensing dye. Identification of Potentiator Compounds: To identify potentiators of AF508-CFTR, a double-addition HTS assay format was developed. […] The driving force for the response is a CI" ion gradient in conjunction with channel activation with forskolin in a single liquid addition step using a fluorescent plate reader such as FLIPR III after the cells have previously been treated with potentiator compounds (or DMSO vehicle control) and subsequently loaded with a redistribution dye. […] HBE grown on Costar® Snapwell™ cell culture inserts were mounted in an Using chamber (Physiologic Instruments, Inc., San Diego, CA), and the transepithelial resistance and short-circuit current in the presence of a basolateral to apical CI" gradient (Isc) were measured using a voltage-clamp system (Department of Bioengineering, University of Iowa, IA). […]

Where [4] appears, read: Solvent System Acetonitrile/H2O.

T1 sequence (P13569 with tags, fused parts or gaps DEL508-508): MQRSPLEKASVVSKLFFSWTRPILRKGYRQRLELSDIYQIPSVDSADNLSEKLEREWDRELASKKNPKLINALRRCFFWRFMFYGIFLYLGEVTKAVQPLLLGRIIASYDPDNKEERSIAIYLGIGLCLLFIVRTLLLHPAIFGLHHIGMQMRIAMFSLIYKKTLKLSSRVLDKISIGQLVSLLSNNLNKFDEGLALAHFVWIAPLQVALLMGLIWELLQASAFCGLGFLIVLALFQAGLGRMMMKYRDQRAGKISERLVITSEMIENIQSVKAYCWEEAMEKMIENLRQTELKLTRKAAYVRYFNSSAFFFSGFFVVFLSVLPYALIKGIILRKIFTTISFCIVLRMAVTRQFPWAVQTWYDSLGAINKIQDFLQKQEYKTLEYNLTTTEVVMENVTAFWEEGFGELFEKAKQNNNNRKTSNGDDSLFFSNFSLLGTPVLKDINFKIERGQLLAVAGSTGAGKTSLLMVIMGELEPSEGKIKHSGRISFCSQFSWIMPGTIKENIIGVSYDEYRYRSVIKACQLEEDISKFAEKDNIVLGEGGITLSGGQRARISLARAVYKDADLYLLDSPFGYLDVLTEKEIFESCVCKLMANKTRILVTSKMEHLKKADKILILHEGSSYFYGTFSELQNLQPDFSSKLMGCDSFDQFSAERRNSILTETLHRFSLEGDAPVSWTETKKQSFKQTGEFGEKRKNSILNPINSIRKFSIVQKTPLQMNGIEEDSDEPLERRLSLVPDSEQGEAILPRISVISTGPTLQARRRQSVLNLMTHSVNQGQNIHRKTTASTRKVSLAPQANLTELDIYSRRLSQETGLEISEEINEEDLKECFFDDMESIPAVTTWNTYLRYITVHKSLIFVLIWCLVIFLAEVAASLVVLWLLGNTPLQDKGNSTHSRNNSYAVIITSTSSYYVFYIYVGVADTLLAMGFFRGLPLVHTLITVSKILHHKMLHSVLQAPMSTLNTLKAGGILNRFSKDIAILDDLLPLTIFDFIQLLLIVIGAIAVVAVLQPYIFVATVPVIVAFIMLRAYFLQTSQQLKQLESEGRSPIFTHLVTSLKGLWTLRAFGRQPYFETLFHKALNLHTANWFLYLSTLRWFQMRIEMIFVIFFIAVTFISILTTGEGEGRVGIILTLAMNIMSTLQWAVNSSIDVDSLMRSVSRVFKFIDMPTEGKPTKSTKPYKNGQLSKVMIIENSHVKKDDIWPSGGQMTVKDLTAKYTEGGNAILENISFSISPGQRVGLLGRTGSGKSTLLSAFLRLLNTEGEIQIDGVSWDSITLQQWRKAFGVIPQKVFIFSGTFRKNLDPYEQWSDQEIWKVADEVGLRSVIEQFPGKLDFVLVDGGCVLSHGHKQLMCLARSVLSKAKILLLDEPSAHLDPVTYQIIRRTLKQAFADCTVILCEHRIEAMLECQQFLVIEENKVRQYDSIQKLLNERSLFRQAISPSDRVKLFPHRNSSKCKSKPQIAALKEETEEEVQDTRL

For `CC(C)(C)c1cc(C(C)(C)C)c(NC(=O)c2c[nH]c3ccccc3c2=O)cc1O` [Compound (VII), N-[2,4-bis(1,1-dimethylethyl)-5-hydroxyphenyl]-1,4-dihydro-4-oxoquinoline-3-carboxamide], the “Solvent Evaporation” value in series [1] (setting [4]) is listed as “Form F”; in series [1] (Solvent System IPAc), “Form G Semi-crystalline”; in series [1] (Solvent System IPAc/H2O), “Form H”; in series [1] (Solvent System MEK), “Form I”; in series [1] (Solvent System MEK/H2O (80:20)), “Form E”; in series [1] (Solvent System MEK/H2O (90:10)), “Form E”. For the same compound, the “Solvent Evaporation” value was “Form J” in series [1] (Solvent System MEK/H2O (99:1)) and “not soluble” in series [1] (Solvent System Water). In addition, the “Antisolvent Addition” value is reported as “Form T” in series [2] (Solvent System IPAc/H2O); “Form K” in series [2] (Solvent System MEK); “Form K” in series [2] (Solvent System MEK/H2O (80:20)); “Form K” in series [2] (Solvent System MEK/H2O (90:10)); “Form K” in series [2] (Solvent System MEK/H2O (99:1)); “not soluble” in series [2] (Solvent System Water). Moreover, the “Solvate Polymorph” value is reported as “Form D” in series [3] (Solvent System Acetonitrile); “Form D” in series [3] (setting [4]); “Form E” in series [3] (Solvent System MEK); “Form E” in series [3] (Solvent System MEK/H2O (80:20)); “Form E” in series [3] (Solvent System MEK/H2O (90:10)); “Form E” in series [3] (Solvent System MEK/H2O (99:1)). Also, the “Solvate Polymorph” value in series [3] (Solvent System Water) is “not soluble”. Besides, the “% Activity” value on AF508-CFTR is on record as “++ ("++" means between 25% to 100%)”.
